# How the values were obtained:
# [1] = Phase I metabolic stability in mouse liver microsomes with NADPH; assay type: in vitro ADME; conditions: 60 min incubation, 1 μM compound
# human D3R = human D3R (Homo sapiens, UniProt P35462); test: Radioligand competition binding, [3H]N-methylspiperone, D3R; conditions: ratio of Ki values; Table 2
# Chain of human D3R (P35462 whole entry): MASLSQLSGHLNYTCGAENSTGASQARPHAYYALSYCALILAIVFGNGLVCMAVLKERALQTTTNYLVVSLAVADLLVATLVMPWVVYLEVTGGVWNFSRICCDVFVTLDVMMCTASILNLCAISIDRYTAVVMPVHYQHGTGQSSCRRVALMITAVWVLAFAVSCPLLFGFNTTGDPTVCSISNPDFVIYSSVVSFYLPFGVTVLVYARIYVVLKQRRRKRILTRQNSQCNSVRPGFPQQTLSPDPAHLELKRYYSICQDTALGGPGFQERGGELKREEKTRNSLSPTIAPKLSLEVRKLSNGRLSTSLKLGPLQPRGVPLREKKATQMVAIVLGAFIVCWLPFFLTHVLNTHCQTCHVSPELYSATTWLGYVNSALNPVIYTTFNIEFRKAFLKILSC
percent original compound remaining [1] [%],Receptor selectivity D2/D3 (human D3R),Receptor selectivity D4/D3 (human D3R),Substance
26,14,,"1-(4-(2,3-Dichlorophenyl)piperazin-1-yl)-4-(4-(quinolin-3-yl)-1H-1,2,3-triazol-1-yl)butan-2-ol [17b]"
,6.3,40,"5-(4-(4-(4-(2-Methoxyphenyl)piperazin-1-yl)butyl)-1H-1,2,3-triazol-1-yl)quinoline [9d]"
